Laboratory results from patent US6610698B2, “Substituted pyrimidine compounds and methods of use” (Amgen, Inc., priority 1996, dated 2003).
Where a name gives a salt, the structure may show the parent alone.

tested on: TNF production by monocytes activated with bacterial lipopolysaccharide (LPS); experiment: Lipopolysaccharide-activated monocyte TNF production assay; type: cell-based, human; conditions: Homo sapiens, Monocyte, TNF in supernatant by ELISA, read-out: IC50 values in the monocyte assay (LPS induced TNF release)
Experimental: Lipopolysaccharide-activated Monocyte TNF Production Assay
Test compounds were evaluated in vitro for the ability to inhibit the production of TNF by monocytes activated with bacterial lipopolysaccharide (LPS). Fresh residual source leukocytes (a byproduct of plateletpheresis) were obtained from a local blood bank, and peripheral blood mononuclear cells (PBMCS) were isolated by density gradient centrifugation on Ficol-Paque Plus (Pharmacia). PBMCs were suspended at 2×10^6/ml in DMEM supplemented to contain 2% FCS, 10 mM, 0.3 mg/ml […], 100 U/ml penicillin G and […] streptomycin sulfate (complete media). Cells were plated into Falcon flat bottom, 96 well culture plates (200 μl/well) and cultured overnight at 37° C. and 6% CO2. Non-adherent cells were removed by washing with 200 μl/well of fresh medium. Wells containing adherent cells (˜70% monocytes) were replenished with 100 μl of fresh medium.
Preparation of Test Compound Stock Solutions
Test compounds were dissolved in […]. Compound stock solutions were prepared to an initial concentration of […]. Stocks were diluted initially to 20-200 μM in complete media. Nine two-fold serial dilutions of each compound were then prepared in complete medium.
Treatment of Cells with Test Compounds and Activation of TNF Production with Lipopolysaccharide
One hundred microliters of each test compound dilution were added to microtiter wells containing adherent monocytes and 100 μl complete medium. Monocytes were cultured with test compounds for 60 min at which time 25 μl of complete medium containing 30 ng/ml lipopolysaccharide from E. coli K532 were added to each well. Cells were cultured an additional 4 hrs. Culture supernatants were then removed and TNF presence in the supernatants was quantified using an ELISA.
Flat bottom, 96 well Corning High Binding ELISA plates were coated overnight (4° C.) with 150 μL/well of 3 μg/ml murine anti-human TNF-α MAb (R&D Systems #MAB210). Wells were then blocked for 1 hr at room temperature with 200 μL/well of CaCl2-free ELISA buffer supplemented to contain 20 mg/ml BSA (standard ELISA buffer: […], 150 mM NaCl, 2 mM CaCl2, 0.15 mM thimerosal, pH 7.4). Plates were washed and replenished with 100 μl of test supernatants (diluted 1:3) or standards. Standards consisted of eleven 1.5-fold serial dilutions from a stock of 1 ng/ml recombinant human TNF (R&D Systems). Plates were incubated at room temperature for 1 hr on orbital shaker (300 rpm), washed and replenished with 100 μl/well of 0.5 μg/ml goat anti-human TNF-α (R&D systems #AB-210-NA) biotinylated at a 4:1 ratio. Plates were incubated for 40 min, washed and replenished with 100 μl/well of alkaline phosphatase-conjugated streptavidin (Jackson ImmunoResearch #016-050-084) at 0.02 μg/ml. Plates were incubated 30 min, washed and replenished with 200 μl/well of 1 mg/ml of p-nitrophenyl phosphate. After 30 min, plates were read at 405 nm on a Vmax plate reader.
Standard curve data were fit to a second order polynomial and unknown TNF-α concentrations determined from their OD by solving this equation for concentration. TNF concentrations were then plotted vs. test compound concentration using a second order polynomial. This equation was then used to calculate the concentration of test compounds causing a 50% reduction in TNF production.

Row | Compound | IC50 [µM]
1 | Fc1ccc(-c2cnc(-c3ccncc3)nc2-c2ccncc2)cc1 [Example 11, 5-(4-Fluorophenyl)-2,4-bis-(4-pyridyl)-pyrimidine] | ≤ 20
2 | COc1cccc(CCNc2ncc(-c3ccc(F)cc3)c(-c3ccncc3)n2)c1 [Example 2-18, 5-(4-Fluorophenyl)-2-(2-(3-methoxyphenyl)-ethylamino)-4-(4-pyridyl)-pyrimidine] | ≤ 20
3 | Fc1ccc(-c2cnc(NCCCCc3ccccc3)nc2-c2ccncc2)cc1 [Example 2-25, 5-(4-Fluorophenyl)-2-((4-phenyl-n-butyl)-amino)-4-(4-pyridyl)-pyrimidine] | ≤ 20
4 | Fc1ccc(-c2cnc(NCCN3CCCC3)nc2-c2ccncc2)cc1 [Example 2-32, 5-(4-Fluorophenyl)-4-(4-pyridyl)-2-(2-pyrrolidinoethylamino)-pyrimidine] | ≤ 20
5 | COc1ccccc1CCNc1ncc(-c2ccc(F)cc2)c(-c2ccncc2)n1 [Example 2-15, 5-(4-Fluorophenyl)-2-(2-(2-methoxyphenyl)-ethylamino)-4-(4-pyridyl)-pyrimidine] | ≤ 20
6 | Fc1ccc(-c2cnc(Nc3c(Cl)cccc3Cl)nc2-c2ccncc2)cc1 [Example 1-24, 2-(2,6-Dichlorophenylamino)-5-(4-fluorophenyl)-4-(4-pyridyl)-pyrimidine] | ≤ 20
7 | Fc1ccc(-c2cnc(NCCN3CCOCC3)nc2-c2ccncc2)cc1 [Example 2-30, 5-(4-Fluorophenyl)-2-(2-morpholinoethylamino)-4-(4-pyridyl)-pyrimidine] | ≤ 20
8 | O=c1[nH]c(Cc2c(Cl)cccc2Cl)nc(-c2ccncc2)c1-c1ccc(F)cc1 [Example 4-3, 2-(2,6-Dichlorobenzyl)-5-(4-fluorophenyl)-6-(4-pyridyl)-4(3H)-pyrimidinone] | ≤ 20
9 | CCN(CC)CCNc1ncc(-c2ccc(F)cc2)c(-c2ccncc2)n1 [Example 1-22, 2-(2-Diethylaminoethylamino)-5-(4-fluorophenyl)-4-(4-pyridyl)-pyrimidine] | ≤ 20
10 | CC(CCc1ccccc1)Nc1ncc(-c2ccc(F)cc2)c(-c2ccncc2)n1 (centres unmarked) [Example 2-23, 5-(4-Fluorophenyl)-2-((1-methyl-3-phenylpropyl)-amino)-4-(4-pyridyl)-pyrimidine] | ≤ 20
11 | NCCCCNc1ncc(-c2ccc(F)cc2)c(-c2ccncc2)n1 [Example 2-3, 2-(4-Aminobutylamino)-5-(4-fluorophenyl)-4-(4-pyridyl)-pyrimidine hydrochloride] | ≤ 20
12 | Fc1ccc(-c2cnc(-c3cccs3)nc2-c2ccncc2)cc1 [Example 1-18, 5-(4-Fluorophenyl)-4-(4-pyridyl)-2-(2-thienyl)-pyrimidine] | ≤ 20
13 | Fc1ccc(-c2cnc(Cc3c(Cl)cccc3Cl)nc2-c2ccncc2)cc1 [Example 1-8, 2-(2,6-Dichlorobenzyl)-5-(4-fluorophenyl)-4-(4-pyridyl)-pyrimidine] | ≤ 20
14 | Cc1cccc(C)c1Nc1ncc(-c2ccc(F)cc2)c(-c2ccncc2)n1 [Example 1-25, 2-(2,6-Dimethylphenylamino)-5-(4-fluorophenyl)-4-(4-pyridyl)-pyrimidine] | ≤ 20
15 | Fc1ccc(-c2cnc(NCCc3ccc(Br)cc3)nc2-c2ccncc2)cc1 [Example 2-10, 2-(2-(4-Bromophenyl)-ethylamino)-5-(4-fluorophenyl)-4-(4-pyridyl)-pyrimidine] | ≤ 20
16 | O=c1[nH]c(SCCOc2ccccc2)nc(-c2ccncc2)c1-c1ccc(F)cc1 [Example 5-3, 5-(4-Fluorophenyl)-2-(2-phenoxyethyl)thio-6-(4-pyridyl)-4(3H)-pyrimidinone] | ≤ 20
17 | Fc1ccc(-c2cnc(N3CCOCC3)nc2-c2ccncc2)cc1 [Example 1-33, 5-(4-Fluorophenyl)-2-morpholino-4-(4-pyridyl)-pyrimidine] | ≤ 20
18 | O=C1CCCN1CCCNc1ncc(-c2ccc(F)cc2)c(-c2ccncc2)n1 [Example 2-34, 5-(4-Fluorophenyl)-2-(3-(2-pyrrolidinon-1-yl)-propylamino)-4-(4-pyridyl)-pyrimidine] | ≤ 20
19 | O=c1[nH]c(SCCNc2ccccc2)nc(-c2ccncc2)c1-c1ccc(F)cc1 [Example 5-4, 5-(4-Fluorophenyl)-2-(2-phenylaminoethyl)thio-6-(4-pyridyl)-4(3H)-pyrimidinone] | ≤ 20
20 | Fc1ccc(-c2cnc(CSc3ccccc3)nc2-c2ccncc2)cc1 [Example 1-10, 5-(4-Fluorophenyl)-2-phenylthiomethyl-4-(4-pyridinyl)-pyrimidine] | ≤ 20
21 | Nc1ccc(CCNc2ncc(-c3ccc(F)cc3)c(-c3ccncc3)n2)cc1 [Example 2-12, 2-(2-(4-Aminophenyl)-ethylamino)-5-(4-fluorophenyl)-4-(4-pyridyl)-pyrimidine] | ≤ 20
22 | Fc1ccc(Nc2ncc(-c3ccc(F)cc3)c(-c3ccncc3)n2)cc1 [Example 1-27, 5-(4-Fluorophenyl)-2-(4-fluorophenylamino)-4-(4-pyridyl)-pyrimidine] | ≤ 20
23 | Fc1ccc(-c2cnc(NCCN3CCCCC3)nc2-c2ccncc2)cc1 [Example 2-31, 5-(4-Fluorophenyl)-2-(2-piperidinoethylamino)-4-(4-pyridyl)-pyrimidine] | ≤ 20

same assay, conditions: TNF in supernatant by ELISA, listed as 5-(4-Fluorophenyl)-2-(N-methyl-N-(2-phenylethyl)amino)-4-(4-pyridyl)-pyrimidine, read-out: IC50 values in the monocyte assay (LPS induced TNF release)

Row | Compound | IC50 [µM]
24 | CN(CCc1ccccc1)c1ncc(-c2ccc(F)cc2)c(-c2ccncc2)n1 [Example 2-21, 5-(4-Fluorophenyl)-2-(methyl-(2-phenylethyl)-amino)-4-(4-pyridyl)-pyrimidine] | ≤ 5

same assay, conditions: TNF in supernatant by ELISA, read-out: IC50 values in the monocyte assay (LPS induced TNF release)

Row | Compound | IC50 [µM]
25 | Fc1ccc(-c2cnc(NCCc3ccccc3F)nc2-c2ccncc2)cc1 [Example 2-13, 5-(4-Fluorophenyl)-2-(2-(2-fluorophenyl)-ethylamino)-4-(4-pyridyl)-pyrimidine] | ≤ 5
26 | Oc1ccc(CCNc2ncc(-c3ccc(F)cc3)c(-c3ccncc3)n2)cc1 [Example 2-11, 5-(4-Fluorophenyl)-2-(2-(4-hydroxyphenyl)-ethylamino)-4-(4-pyridyl)-pyrimidine] | ≤ 5
27 | Fc1ccc(CCNc2ncc(-c3ccc(F)cc3)c(-c3ccncc3)n2)cc1 [Example 2-8, 5-(4-Fluorophenyl)-2-(2-(4-fluorophenyl)-ethylamino)-4-(4-pyridyl)-pyrimidine] | ≤ 5
28 | CC(CCc1ccccc1)Nc1nc(-c2ccncc2)c(-c2ccc(F)cc2)c(=O)[nH]1 (centres unmarked) [Example 6-3, 5-(4-Fluorophenyl)-2-((1-methyl-3-phenylpropyl)-amino)-6-(4-pyridyl)-4(3H)-pyrimidinone] | ≤ 5
29 | 5-(4-Fluorophenyl)-2-((3-imidazolylpropyl)-amino)-4-(4-pyridyl)-pyrimidine [Example 2-24] | ≤ 5
30 | O=c1[nH]c(NCCCc2ccccc2)nc(-c2ccncc2)c1-c1ccc(F)cc1 [Example 6-2, 5-(4-Fluorophenyl)-2-((3-phenylpropyl)-amino)-6-(4-pyridyl)-4(3H)-pyrimidinone] | ≤ 5
31 | Fc1ccc(-c2cnc(NCCCc3ccccc3)nc2-c2ccncc2)cc1 [Example 2-22, 5-(4-Fluorophenyl)-2-((3-phenylpropyl)-amino)-4-(4-pyridyl)-pyrimidine] | ≤ 5
32 | OC(CNc1ncc(-c2ccc(F)cc2)c(-c2ccncc2)n1)c1ccccc1 (centres unmarked) [Example 2-20, 5-(4-Fluorophenyl)-2-((2-hydroxy-2-phenyl)-ethylamino)-4-(4-pyridyl)-pyrimidine] | ≤ 5
